“And” between values parts separate entries of the source, which are not always exact repeats. Equal entries are not always repeated. “Also recorded” adds a separate entry of the source.
Assays:
[1] = Wst-1 cell viability assay after H2O2 + TNFα stress, motor neuron cell line; assay type: cell-based, mouse; conditions: mouse; NPD 100 nM alone, 24 hrs incub., control (veh.) = 100
Description: (§1) Pharma Inc.) were added to the growth medium. […] NPD1, or Compound 1 in Table 1, was analyzed for activity in NCS34 cells, a mouse motor neuron cell line. […] Treatment with H2O2 and 10 ng/ml TNFα caused between 26-37% cell death in the motor neurons (FIG. 1).

NSC34 cells = assay: as above; assay type: cell-based, mouse
Description: as §1

C8-D1A cells = assay: Wst-1 cell viability assay after H2O2 + TNFα stress, astrocyte cell line
Source text: It is well-known in the art that inflammation and oxidative stress are significant contributors to neurodegeneration. H2O2 is commonly used in experiments to simulate oxidate stress. […] Accordingly, in this in vitro assay, TNF-alpha and hydrogen peroxide (H2O2) were used as stressors to induce cell death to model ALS.
Cell viability after treatment with H2O2 and TNFα was examined in NCS34 cells, a mouse motor neuron cell line, and in C8-D1A cells, a mouse astrocyte cell line (from the American Type Tissue Culture Collection). The protocol for assessing the activity of any of the compounds disclosed herein in cultured cells is as follows:
Day 1: Cells were plated into 96 well plates at a confluency of 60%. Cells were maintained in growth medium consisting of Dulbecco's Modified Essential Medium (DMEM, LifeTechnologies Inc.) supplemented with 10% fetal bovine serum (Hyclone) and incubated in a tissue culture incubator at 37° C., 95% […] and 5% CO2.
Day 2: The growth medium was changed to 200 μl/well DMEM without fetal bovine serum. Additional agents, such as varying concentrations of H2O2 (Sigma Aldrich Inc.), TNFalpha, and a vehicle control or any of the compounds disclosed herein, e.g., NPD1 (Anida Pharma Inc.) were added to the growth medium. The cells were incubated overnight for 24 hours in a tissue culture incubator at 37° C., 95% […] and 5% CO2
Day 3: After 24 hours, 20 μl of Wst-1 cell viability reagent (Roche Applied Sciences Inc.) was added to each well (1:10 dilution in growth medium). Mix well by gently rocking the plate side-to-side. The cells were incubated at 37° C. for 60 minutes. […] A background control (or blank) for the growth medium and WST-1 reagent (without cells) can also be measured. The 630 nm background absorbance values are then subtracted from the 450 nm measurement for a normalized 450 nm absorbance value.
NPD1 activity was analyzed in C8-D1A cells, a mouse astrocyte cell line (American Type Tissue Culture Collection). C8-D1A cells were treated with increasing concentrations of H2O2 (1 μM, 10 μM, 50 μM, 100 μM, 400 μM and 800 μM) and 10 ng/ml TNFα without NPD1, or with 50 nM or 100 nM NPD1 for 24 hours. Cell viability was determined by Wst-1 cell viability assay, as described in Example 1. Each sample was performed in triplicate.

[2] = NPD 100 nM + TNFa 10 ng/ml + H2O2 1 uM, 24 hrs
[3] = NPD 100 nM + TNFa 10 ng/ml + H2O2 10 uM, 24 hrs
[4] = NPD 100 nM + TNFa 10 ng/ml + H2O2 50 uM, 24 hrs
[5] = NPD 100 nM + TNFa 10 ng/ml + H2O2 100 uM, 24 hrs
[6] = NPD 100 nM + TNFa 10 ng/ml + H2O2 400 uM, 24 hrs
[7] = NPD 100 nM + TNFa 10 ng/ml + H2O2 800 uM, 24 hrs
[8] = 0 uM H2O2 + 10 ng/ml TNFa, 50 nM NPD1, 24 hours
[9] = 0 uM H2O2 + 10 ng/ml TNFa, 100 nM NPD1, 24 hours
[10] = 25 uM H2O2 + 10 ng/ml TNFa, 50 nM NPD1, 24 hours
[11] = 25 uM H2O2 + 10 ng/ml TNFa, 100 nM NPD1, 24 hours
[12] = 50 uM H2O2 + 10 ng/ml TNFa, 50 nM NPD1, 24 hours
[13] = 50 uM H2O2 + 10 ng/ml TNFa, 100 nM NPD1, 24 hours
[14] = 100 uM H2O2 + 10 ng/ml TNFa, 50 nM NPD1, 24 hours
[15] = 100 uM H2O2 + 10 ng/ml TNFa, 100 nM NPD1, 24 hours
[16] = 200 uM H2O2 + 10 ng/ml TNFa, 50 nM NPD1, 24 hours
[17] = 200 uM H2O2 + 10 ng/ml TNFa, 100 nM NPD1, 24 hours
[18] = 400 uM H2O2 + 10 ng/ml TNFa, 50 nM NPD1, 24 hours
[19] = 400 uM H2O2 + 10 ng/ml TNFa, 100 nM NPD1, 24 hours
[20] = 800 uM H2O2 + 10 ng/ml TNFa, 50 nM NPD1, 24 hours
[21] = 800 uM H2O2 + 10 ng/ml TNFa, 100 nM NPD1, 24 hours
[22] = Mus musculus, C8-D1A, read-out: % cell viability

## CC/C=C\C[C@H](O)\C=C/C=C/C=C/[C@H](O)C/C=C\C/C=C\CCC(=O)[O-].[Na+] [NPD1, Sodium 4Z,7Z,10R,11E,13E,15Z,17S, 19Z)-10,17-dihydroxydocosa-4,7,11,13,15,19-hexaenoate]
[1]
  viability at 24 h, 100 nM: 95.6%
NSC34 cells; 100 nM NPD1, 24 hours with H2O2 and 10 ng/ml TNFα
  cell viability (in words): increased cell viability
NSC34 cells; Mus musculus, NSC-34, read-out: % cell viability
  viability at 0.1 µM: 78%
NSC34 cells; [2]
  % Cell Viability: 105.1%
  Avg Abs 450 nm: 0.7104
NSC34 cells; [3]
  % Cell Viability: 95.6%
  Avg Abs 450 nm: 0.645
NSC34 cells; NPD 100 nM + TNFa 10 ng/ml + H2O2 10 uM, 24 hrs, listed as NPD
  % Cell Viability: 95.45%
NSC34 cells; [4]
  % Cell Viability: 74.46%
  Avg Abs 450 nm: 0.5031
NSC34 cells; [5]
  % Cell Viability: 78.22%
  Avg Abs 450 nm: 0.5285
NSC34 cells; [6]
  % Cell Viability: 78.26%
  Avg Abs 450 nm: 0.5288
NSC34 cells; [7]
  % Cell Viability: 81.41%
  Avg Abs 450 nm: 0.5501
NSC34 cells; NPD 100 nM alone, 24 hrs incub.
  Avg Abs 450 nm: 0.6462
NSC34 cells; NPD1 100 nM vs TNFa + H2O2 alone
  Percent saved with NPD1 (14/36): 39%
NSC34 cells; NPD1 added to cells treated with 50-800 μM H2O2 and 10 ng/ml TNFα
  cell viability (in words): increases in cell viability
NSC34 cells; TNFa + H2O2 + NPD1 100 nM (TNFa + H2O2 alone: 36)
  % cells apoptosed: 22%
C8-D1A cells; [8]
  absorbance after subtraction of background signal, avg: 0.586 and 0.5861
  absorbance after subtraction of background signal, replicates 1-3: 0.561 and 0.632 and 0.565
  raw absorbance Avg.: 1.03
  raw absorbance, replicates 1-3: 1.0047 and 1.0764 and 1.0093
C8-D1A cells; [9]
  absorbance after subtraction of background signal, avg: 0.593 and 0.5931
  absorbance after subtraction of background signal, replicates 1-3: 0.565 and 0.587 and 0.627
  raw absorbance Avg.: 1.037
  raw absorbance, replicates 1-3: 1.0312 and 1.071 and 1.009
C8-D1A cells; 50 nM or 100 nM NPD1, H2O2 + 10 ng/ml TNFα, 24 hours
  astrocyte cell survival and viability (in words): increased cell survival and viability in a dose-dependent manner; also recorded: increased astrocyte viability and reduced astrocyte death
C8-D1A cells; [10]
  absorbance after subtraction of background signal, avg: 0.560 and 0.5597
  absorbance after subtraction of background signal, replicates 1-3: 0.551 and 0.541 and 0.588
  raw absorbance Avg.: 1.004
  raw absorbance, replicates 1-3: 0.9946 and 0.985 and 1.0316
C8-D1A cells; [11]
  absorbance after subtraction of background signal, avg: 0.555 and 0.5549
  absorbance after subtraction of background signal, replicates 1-3: 0.563 and 0.524 and 0.578
  raw absorbance Avg.: 0.9989
  raw absorbance, replicates 1-3: 0.9676 and 1.0219 and 1.0073
C8-D1A cells; [12]
  absorbance after subtraction of background signal, avg: 0.392 and 0.3915
  absorbance after subtraction of background signal, replicates 1-3: 0.416 and 0.399 and 0.360
  raw absorbance Avg.: 0.8355
  raw absorbance, replicates 1-3: 0.8604 and 0.8427 and 0.8035
C8-D1A cells; [13]
  absorbance after subtraction of background signal, avg: 0.412 and 0.4123
  absorbance after subtraction of background signal, replicates 1-3: 0.434 and 0.390 and 0.414
  raw absorbance Avg.: 0.8563
  raw absorbance, replicates 1-3: 0.8335 and 0.8579 and 0.8776
C8-D1A cells; [14]
  absorbance after subtraction of background signal, avg: 0.070 and 0.07003
  absorbance after subtraction of background signal, replicates 1-3: 0.029 and 0.072 and 0.109
  raw absorbance Avg.: 0.514
  raw absorbance, replicates 1-3: 0.4731 and 0.5164 and 0.5526
C8-D1A cells; [15]
  absorbance after subtraction of background signal, avg: 0.128 and 0.1278
  absorbance after subtraction of background signal, replicates 1-3: 0.125 and 0.138 and 0.120
  raw absorbance Avg.: 0.5718
  raw absorbance, replicates 1-3: 0.5823 and 0.5639 and 0.5691
C8-D1A cells; [16]
  absorbance after subtraction of background signal, replicates 1-3: −0.021 and −0.023 and −0.022
  raw absorbance Avg.: 0.4217
  raw absorbance, replicates 1-3: 0.4228 and 0.4206 and 0.4217
C8-D1A cells; [17]
  absorbance after subtraction of background signal, replicates 1-3: −0.027 and −0.023 and −0.015
  raw absorbance Avg.: 0.4222
  raw absorbance, replicates 1-3: 0.4209 and 0.429 and 0.4166
C8-D1A cells; [18]
  absorbance after subtraction of background signal, replicates 1-3: −0.018 and −0.017 and −0.014
  raw absorbance Avg.: 0.4274
  raw absorbance, replicates 1-3: 0.4258 and 0.4267 and 0.4296
C8-D1A cells; [19]
  absorbance after subtraction of background signal, replicates 1-3: −0.015 and −0.016 and −0.013
  raw absorbance Avg.: 0.4291
  raw absorbance, replicates 1-3: 0.4277 and 0.4307 and 0.4289
C8-D1A cells; [20]
  absorbance after subtraction of background signal, replicates 1-3: −0.001 and −0.006 and 0.000
  raw absorbance Avg.: 0.4415
  raw absorbance, replicates 1-3: 0.4431 and 0.4376 and 0.4439
C8-D1A cells; [21]
  absorbance after subtraction of background signal, avg: 0.005 and 0.004833
  absorbance after subtraction of background signal, replicates 1-3: 0.002 and 0.004 and 0.008
  raw absorbance Avg.: 0.4488
  raw absorbance, replicates 1-3: 0.4484 and 0.4523 and 0.4458
C8-D1A cells; [22]
  viability at 0.05 µM: 12%
  viability at 0.1 µM: 23%
C8-D1A cells; TNFa + H2O2 + NPD1 50 nM (TNFa + H2O2 alone: 99)
  % cells apoptosed: 88%
C8-D1A cells; TNFa + H2O2 + NPD1 100 nM (TNFa + H2O2 alone: 99)
  % cells apoptosed: 77%

Source: patent US9340483B2, “Methods of treating amyotrophic lateral sclerosis” (Anida Pharma Inc., priority 2012, dated 2016)
